According to US12569498B2, “Methods and compositions for the prevention and treatment of ischemia reperfusion injury and infection” (CHILDREN'S NATIONAL MEDICAL CENTER, priority 2019, dated 2026):
Entries after “also recorded” stand apart in the source; their conditions may differ.

Experiments:
[1] = cited from earlier work
α4β2nAChR = α4β2nAChR (Homo sapiens, UniProt P17787+P43681); settings: systemic concentrations found with routine oral dosing in humans (Campling 2013); cited from earlier work
[2] = tested on: oxidative stress within the testis; assay: Myeloperoxidase activity and reduced glutathione levels in testis after testicular torsion; assay type: in vivo, CD1 mice; settings: varenicline 1 hour after onset of torsion, vs untreated controls; for reduced glutathione (GSH) levels in testis: 48 hours following reperfusion, P≤0.0742
Method: Mice underwent testicular torsion as previously described (Lysiak 2001). Briefly, mice were anesthetized with isoflurane over a heating pad. The right testis was delivered through a low scrotal incision and rotated counterclockwise 720 degrees to induce ischemia for 2 hours. […] All animals were injected with long-acting buprenorphine (0.1 mg/kg) for long-term pain control prior to being recovered from anesthesia. […] Mice kept for 30 days after surgery were weighed on a weekly basis.
(§1) Cytisine (Sigma-Aldrich, St. Louis, MO) was administered intraperitoneally at a dose of 0.1 μg/gram either 1 hour before torsion or 1 hour after torsion (1 hour prior to detorsion). Varenicline ([…]) was administered as an intraperitoneal injection one hour after the onset of torsion and then continued every 12 hours for a total of 4 doses.
Tissues were harvested and stored at −80° C. until use. Glutathione reductase activity was measured by use of glutathione reductase assay Kit (Sigma-Aldrich, St. Louis, MO). Testis tissue was homogenized in 5% sulfosalicylic Acid (SSA) solution. Samples were then centrifuged and supernatant was reserved. Supernatants were added to a reaction mixture containing 95 mM potassium phosphate buffer, pH 7.0, 0.95 mM EDTA, 0.038 mg/mL NADPH, 0.031 mg/mL DTNB, 0.115 units/mL glutathione reductase, and 0.24% SSA. Absorbance at 412 nm was recorded. Glutathione results were expressed as nm GSH per mL sample.
Following an ischemic event, the initial inflammatory response is characterized by an increase in oxidative stress and production of reactive oxygen species. In order to determine the effect of cytisine treatment on the level of reactive oxygen species (ROS) following testicular torsion, testicular levels of myeloperoxidase (MPO), a marker of neutrophil activation, and reduced glutathione (GSH) levels (an indirect measure of oxidative stress within the testis) were measured.

[3] = Masson trichrome staining and ImageJ quantification of collagen in testis 30 days after torsion; assay type: in vivo, CD1 mice; settings: 30 days following torsion, vs untreated, cytisine p<0.01, varenicline p<0.0001
Method: (§2) Mice underwent testicular torsion as previously described (Lysiak 2001). Briefly, mice were anesthetized with isoflurane over a heating pad. The right testis was delivered through a low scrotal incision and rotated counterclockwise 720 degrees to induce ischemia for 2 hours. […] All animals were injected with long-acting buprenorphine (0.1 mg/kg) for long-term pain control prior to being recovered from anesthesia. Mice were euthanized either 18 hours or 30 days following torsion. Mice kept for 30 days after surgery were weighed on a weekly basis.
as §1
Testis tissue was harvested and stored in 70% ethanol. Fixation, embedding, sectioning, and staining were performed by the research pathology core at George Washington University. Sections were cut at a thickness of […]. Tissues were stained for H&E or Masson trichrome. Photographs were scanned at 20× resolution with Olympus VS120 virtual slide microscope system. TIF images were analyzed with ImageJ Fiji software as previously described (Caetano, Fronza et al. 2016). The color deconvolution plugin was used to perform ImageJ analysis on an area measuring 3000 square pixels. Automatic thresholding was performed. The amount of collagen in each area is expressed as the percentage of blue pixels in the image area taken as an average of 3 non-overlapping measurements.

[4] = Renal scar formation and trichrome collagen quantification after acute pyelonephritis; assay type: in vivo, C3H/HeOuJ mice
Method: To initiate pyelonephritis, the bladder was catheterized with a 24-gauge angiocatheter and a total volume of 100 μL of a phosphate-buffered saline containing […] colony forming units (CFU) of CFT073 uropathogenic Escherichia coli (UPEC) was then instilled.
Tissues were preserved in formalin for 72 hours then stored in ethanol. Sections were cut to a 5 μm thickness and stained with H&E or Masson trichrome. Photographs were obtained at 20× resolution with Olympus VS120 virtual slide microscope system. The images were then analyzed with ImageJ Fiji software in order to quantify collagen deposition as previously described (Chen 2017). As collagen deposition would be expected as long-term sequelae of IRI, the trichrome stains of the long-term specimen were examined. All artifacts from the staining process as well as gross collecting system were cropped from these images prior to analysis. A color deconvolution plugin was used to separate the trichrome images into the separate colors. Analysis was performed based upon the percentage of deposition of collagen in the green image compared to the overall area of the kidneys.
Tissues harvested 21 days following completion of antibiotic therapy were subjected to trichome staining to assess for global collagen deposition. After removing artifacts (to ensure only parenchyma was included in the analysis), a color deconvolution plugin was used for ImageJ to divide the images into the respective three colors of the trichrome stain. A threshold was set and collagen was quantified as a percentage of green color in respect to the area of the entire kidney (FIG. 13).

[5] = tested on: NFKB targets (TLR4, NLRP3, Trim63, Fbxo32); assay: RT-PCR of downstream NFKB target genes after testicular torsion; assay type: in vivo, CD1 mice; settings: testis, 18 hours following testicular torsion
Method: as §2, §1
RNA was isolated from testis tissue using RNEasy mini kit (Qiagen, Hilden, Germany) using the manufacturer's protocol. RNA concentration was measured with Nanodrop 8000 (Thermo Scientific, Waltham, MA). cDNA was synthesized using Superscript First-Strand Synthesis system for RT-PCR (Invitrogen, Carlsbad, CA) on a GeneAmp PCR System 9700 (Applied Biosystems, Foster City, CA) Real-Real-time PCR was performed using QuantStudio 7 Flex (Applied Biosystems, Foster City, CA). Software Quantstudio Real-Time PCR Software (Thermo Fisher Scientific, Waltham, MA). TaqMan Gene Expression Assays (Applied Biosystems, Foster City, CA). Standard TaqMan primers were used for Col1, Col3, Vim, SMA.
NFKB signaling results in the upregulation of several downstream targets, which propagate the inflammatory cascade. To determine if varenicline administration reduced activation of the NFKB axis, quantitative PCR of established downstream NFKB targets was performed.

[6] = adolescents aged 12-16, of 75 patients (Faessel 2009)

α4β2nAChR, sequence (P43681 29-627 limits assumed): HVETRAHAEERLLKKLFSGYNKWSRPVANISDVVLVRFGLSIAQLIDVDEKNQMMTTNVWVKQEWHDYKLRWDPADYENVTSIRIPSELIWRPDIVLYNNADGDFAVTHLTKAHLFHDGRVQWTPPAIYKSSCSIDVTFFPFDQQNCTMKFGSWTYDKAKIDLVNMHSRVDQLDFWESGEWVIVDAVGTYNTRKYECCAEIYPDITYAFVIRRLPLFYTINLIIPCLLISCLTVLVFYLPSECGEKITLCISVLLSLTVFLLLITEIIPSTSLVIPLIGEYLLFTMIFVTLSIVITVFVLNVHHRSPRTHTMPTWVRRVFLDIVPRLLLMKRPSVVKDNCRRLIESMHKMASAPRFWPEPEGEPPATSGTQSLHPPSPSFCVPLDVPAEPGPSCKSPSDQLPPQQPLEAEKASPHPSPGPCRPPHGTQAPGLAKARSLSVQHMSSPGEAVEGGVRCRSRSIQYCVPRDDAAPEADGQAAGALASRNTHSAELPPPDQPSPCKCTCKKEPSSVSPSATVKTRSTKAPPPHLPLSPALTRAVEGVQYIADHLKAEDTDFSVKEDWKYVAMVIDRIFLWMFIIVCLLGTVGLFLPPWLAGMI
α4β2nAChR, sequence (P17787 26-502): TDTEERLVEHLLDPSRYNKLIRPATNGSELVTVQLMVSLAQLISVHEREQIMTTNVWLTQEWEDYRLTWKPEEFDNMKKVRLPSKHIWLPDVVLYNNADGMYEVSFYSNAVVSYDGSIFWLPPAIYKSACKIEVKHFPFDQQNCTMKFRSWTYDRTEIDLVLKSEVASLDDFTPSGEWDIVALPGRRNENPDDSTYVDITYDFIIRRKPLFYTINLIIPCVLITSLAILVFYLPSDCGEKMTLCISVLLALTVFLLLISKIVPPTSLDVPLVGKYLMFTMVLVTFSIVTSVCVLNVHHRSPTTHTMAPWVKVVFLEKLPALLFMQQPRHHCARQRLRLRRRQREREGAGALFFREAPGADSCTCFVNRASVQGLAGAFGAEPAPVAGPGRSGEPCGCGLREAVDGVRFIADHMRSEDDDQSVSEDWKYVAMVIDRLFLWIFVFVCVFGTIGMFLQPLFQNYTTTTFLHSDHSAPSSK

## c1cnc2cc3c(cc2n1)C1CNCC3C1 [varenicline, 7,8,9, 10-tetrahydro-6, 10-methano-6H-pyrazino[2,3-h][3]benzazepine]
[1]; adolescents aged 12-16 (Faessel 2009)
  incidence of neurocognitive side effects: 3 out of 75
[1]; [6]
  abnormal dreams: 2 patients
  transient mild anger: 1 patient
α4β2nAChR
  α4β2nAChR agonism: strong α4β2nAChR and α7nAChR agonist
[2]
  reduced glutathione (GSH) levels in testis: increased levels of reduced glutathione (GSH)
[2]; listed as Varenicline
  reduced glutathione (GSH) levels in testis: preserved reduced glutathione levels
[2]; P≤0.0013
  myeloperoxidase (MPO) activity in testis: decreased levels of MPO activity; also recorded: significantly decreased
[3]
  collagen content of testis (trichrome staining, percentage of collagen): untreated group had significantly higher collagen content; also recorded: decreased histologic and genetic markers of testicular fibrosis
[3]; listed as Varenicline
  collagen content of testis (trichrome staining, percentage of collagen): significantly higher percentage of collagen in the untreated animals
[4]; 21 days following completion of antibiotic therapy, varenicline plus ceftriaxone vs ceftriaxone alone, p=0.001
  collagen deposition in the kidneys (percentage of green pigment per area of entire kidney): significantly lower amount of collagen deposition; also recorded: long-term decrease in collagen deposition
[4]; 30 days following acute pyelonephritis, preliminary results
  incidence of renal scar formation and renal atrophy: decreased
[5]; p<0.0001
  expression of Fbxo32: significantly decreased the expression
[5]; p<0.01
  expression of TLR4: significantly decreased the expression
[5]; p<0.05
  expression of NLRP3: significantly decreased the expression
[5]; p≤0.034
  expression of Trim63: significantly decreased the expression
